These results are taken from ChEMBL document CHEMBL5620416, “Design, synthesis and development of a dual inhibitor of Topoisomerase 1 and poly (ADP-ribose) polymerase 1 for efficient killing of cancer cells” (Eur J Med Chem, 2023).

Activity calls are given as the source filed them. The calls are words filed in the database; no cut-off is given here.

Data set [1] relates to HCT-116. In words: Induction of cell cycle arrest in human HCT-116 cells assessed as accumulation of cells at G2 phase at 20 uM incubated for 48 hrs by PI staining based flow cytometry analysis (reference value: 26%). The format is functional. (In general: Flow cytometry measures light scatter and fluorescence of single cells or particles in a stream.)
The test system of data set [2] is HCT-116. In words: Induction of cell cycle arrest in human HCT-116 cells assessed as accumulation of cells at Sub-G1 phase at 5 uM incubated for 24 hrs by PI staining based flow cytometry analysis (reference value: 1.1 +/- 0.1%). The format is functional.
For data set [3], the system named is HCT-116. Description: Induction of DNA double stranded break in human HCT-116 cells assessed as increase in 53BP1 level at 20 uM after 4 to 8 hrs by immunofluorescence assay. The format is functional, cell-based. Conditions: time 4-8 hrs.
Another data set relates to Calf thymus DNA. In words: Displacement of EtBr from calf thymus pUC19 DNA preincubated with EtBr for 15 mins followed by compound addition and measured after 30 mins by […] staining based fluorescence assay. The format is nucleic-acid assay. To be noted: Bos taurus, dose 100-300 µM.
Data set [4] relates to HCT-116. In words: Induction of cell cycle arrest in human HCT-116 cells assessed as accumulation of cells at Sub-G1 phase at 10 uM incubated for 48 hrs by PI staining based flow cytometry analysis (reference value: 2.7 +/- 0.4%). The format is functional.
Data set [5] has as its system DNA topoisomerase 1/Deoxyribonucleic acid (Homo sapiens). Description: Induction of TOP1-DNA covalent complex degradation in human HCT-116 cells at 20 uM measured upto 24 hrs by RADAR assay. The format is cell-based.
The subject of data set [6] is HCT-116. Description: Induction of cell cycle arrest in human HCT-116 cells at 5 to 20 uM by PI staining based flow cytometry analysis. The format is functional. To be noted: dose 5-20 µM, time 24-48 hrs, TDE = time-dependent effect.
Another data set relates to MCF-10A. In words: Cytotoxicity against human MCF-10A cells at 50 uM incubated for 72 hrs by MTT assay. The format is toxicity, cell-based.
Data set [7] has as its system HCT-116. In words: Induction of PARylation in human HCT-116 cells at 20 uM incubated for 2 to 8 hrs by Western blotting analysis. The format is functional, cell-based. To be noted: time 2-8 hrs. In general terms: A western blot detects proteins with antibodies after separation by electrophoresis.
Data set [8] deals with DNA topoisomerase 1/Deoxyribonucleic acid (Homo sapiens). In words: Induction of TOP1-DNA covalent complex stabilization in human HCT-116 cells at 10 to 20 uM after 4 to 6 hrs by RADAR assay. To be noted: dose 10-20 µM, time 4-6 hrs. The format is cell-based.
Another data set relates to MIA PaCa-2. In words: Cytotoxicity against human MIA PaCa-2 cells incubated for 72 hrs by MTT assay. To be noted: MIA PaCa-2, 72 h. The format is functional, cell-based. (In general: Tetrazolium assays rely on reduction of a dye to a coloured formazan, in cell work by metabolically active cells.)
Data set [9] relates to HCT-116. Description: Induction of cell cycle arrest in human HCT-116 cells assessed as accumulation of cells at S phase at 20 uM incubated for 48 hrs by PI staining based flow cytometry analysis (reference value: 17%). The format is functional.
A further data set relates to PANC-1. In words: Cytotoxicity against human PANC-1 cells incubated for 72 hrs by MTT assay. To be noted: PANC-1, 72 h. The format is functional, cell-based.
Data set [10] has as its system DNA topoisomerase 1/Deoxyribonucleic acid (Homo sapiens). In words: Induction of TOP1-DNA covalent complex stabilization in human HCT-116 cells at 20 uM by immunofluorescence microscopic assay. The format is cell-based. To be noted: time 2-8 hrs, TDE = time-dependent effect.

Usually IC50 stands for the point on the concentration scale where inhibition reaches its midpoint. A low value points to inhibition by little substance. For the compound `O=C1c2cccc3cccc(c23)C(=O)N1CCSc1nnc(Cn2nc(Cc3ccc(F)cc3)c3ccccc3c2=O)o1`, the Activity was 34% in the data set with HCT-116 [1]; 23.8% in the data set with HCT-116 [2]; “Dose-Dependent Effect” in the data set on Calf thymus DNA; 44.2% in the data set on HCT-116 [4]; “Tde” in the data set on HCT-116 [6]; greater than 80% with MCF-10A. In addition, the Activity in the data set on HCT-116 [9] was 39%; in [10] it was “Tde”. Also, the outcome (in the data set on HCT-116 [3]; in data set [5]; with HCT-116 [7]; in data set [8]) was Active. Besides, the IC50 came out at 4.5 µM with MIA PaCa-2 and 4 µM with PANC-1.
